Measured values: paper PMC12703733, “Probing Guanidino Pendant or Bridged Groups in Cyclic Antimicrobial Peptides Derived from Temporin L: A Strategy to Improve Efficacy against Gram-Negative Bacteria” (Journal of Medicinal Chemistry, 2025)
In brackets after ≈: the same amount, converted by molar mass. Bridge positions count the residues as written; N and C are the ends. Square brackets hold non-standard residues; d marks the D form. Peptide text beside a SMILES is read from it. * marks the point of attachment. Propanoyl(3-guanidino) = N=C(N)NCCC(=O)*; X1 = N=C(N)N[C@@H](Cc1ccccc1)C(=O)*

Columns and labels:
circular dichroism = conditions: water; pH ns; 25 °C; 150 uM
[1] = type: cell-based, human; conditions: human; for viability at 2 h, 3.12 µM / viability at 2 h, 6.25 µM / viability at 2 h, 12.5 µM / viability at 2 h, 25 µM / viability at 2 h, 50 µM / viability at 2 h, 100 µM / viability at 24 h, 3.12 µM / viability at 24 h, 6.25 µM / viability at 24 h, 12.5 µM / viability at 24 h, 25 µM / viability at 24 h, 50 µM / viability at 24 h, 100 µM: Cell viability (%)
Method: (§1) For the evaluation of peptides’ cytotoxicity, the human immortalized keratinocytes (HaCaT cells), purchased from AddexBio (San Diego, CA, USA), and BEAS-2B were used. HaCaT cells were cultured in Dulbecco’s modified Eagle’s medium supplemented with 4 mM glutamine (DMEM), 10% heat-inactivated fetal bovine serum (FBS), and 0.1 mg/mL of penicillin and streptomycin, at 37 °C and 5% CO2. BEAS-2B cells were cultured in RPMI, supplemented with 2 mM glutamine (DMEM), 10% heat-inactivated fetal bovine serum (FBS), 1 mM sodium pyruvate, and 0.1 mg/mL of penicillin and streptomycin, at 37 °C and 5% CO2. Cytotoxicity was tested in vitro using a colorimetric assay that relies on the intracellular reduction of the yellow 3-(4,5-dimethylthiazol-2-yl)-2,5-diphenyltetrazolium bromide salt (MTT) by mitochondrial dehydrogenases of metabolically active cells in formazan crystals (purple). About 4 × 10^4 HaCaT and BEAS-2B cells, suspended in DMEM supplemented with 2% FBS, were plated in triplicate wells of a 96-well microtiter plate. The plate was incubated overnight at 37 °C and 5% CO2. Then, the cells were treated with different concentrations of the peptide (from 100 to 3.12 μM) in a fresh serum-free medium for 2 h and for a longer time (24 h). Following peptide treatment, the medium was removed, and MTT (0.5 mg/mL) solution in Hank’s buffer (136 mM NaCl, 4.2 mM Na2HPO4, 4.4 mM KH2PO4, 5.4 mM KCl, 4.1 mM NaHCO3, pH 7.2, supplemented with 20 mM D-glucose) was added to each well of the plate, that was then incubated for 4 h at 37 °C and 5% CO2. The purple formazan crystals were dissolved using acidified 2-propanol and a microplate reader (Infinite M200; Tecan, Salzburg, Austria) was used to measure the absorbance of each well at 570 nm. The percentage of cell viability was calculated compared to the control, which consisted of cells without any peptide treatment (corresponding to 100% viability) and all data represent the mean of three independent experiments ± SEM.

P. aeruginosa PAO1 = assay: microbe, parasite or virus in culture; type: cell-based; conditions: PAO1
Method: (§2) Bacterial strains used in this study were the Gram-positive S. aureus ATCC 25923, S. epidermidis ATCC 12228, B. megaterium BM11, S. [NT] 27591, E. faecalis ATCC 29212 and the Gram-negative E. coli ATCC 25922, P. aeruginosa ATCC 27853, A. baumannii ATCC 19606, E. coli D21 and P. aeruginosa PAO1. […] Bacterial cells in the mid log phase were diluted in Muller Hinton (MH) at a concentration of 2 × 10^6 cell/mL. […] Ciprofloxacin was used as antibiotic control. The plate was then incubated at 37 °C. MICs were obtained from three identical readings of four independent experiments.

[2] = tested on: S. epidermidis ATCC 12228; assay: microbe, parasite or virus in culture; type: cell-based; conditions: ATCC 12228
Method: as §2

A. baumannii ATCC 19606 = assay: microbe, parasite or virus in culture; type: cell-based; conditions: ATCC 19606
Method: as §2

S. agalactiae ATCC 27591 = assay: microbe, parasite or virus in culture; type: cell-based; conditions: ATCC 27591
Method: as §2

P. aeruginosa ATCC 27853 = assay: microbe, parasite or virus in culture; type: cell-based; conditions: ATCC 27853
Method: as §2

E. coli D21 = assay: microbe, parasite or virus in culture; type: cell-based; conditions: D21
Method: as §2

E. coli ATCC 25922 = assay: microbe, parasite or virus in culture; type: cell-based; conditions: ATCC 25922
Method: as §2

S. aureus ATCC 25923 = assay: microbe, parasite or virus in culture; type: cell-based; conditions: ATCC 25923
Method: as §2

E. faecalis ATCC 29212 = assay: microbe, parasite or virus in culture; type: cell-based; conditions: ATCC 29212
Method: as §2

B. megaterium BM11 = assay: microbe, parasite or virus in culture; type: cell-based; conditions: BM11
Method: as §2

[3] = tested on: human keratinocytes (HaCaT cells); type: cell-based
Method: as §1

| SMILES | helicity (circular dichroism) [%] | CC50 at 24 h [1] [µM] | viability at 2 h, 6.25 µM [1] [%] | viability at 2 h, 12.5 µM [1] [%] | viability at 2 h, 25 µM [1] [%] | viability at 2 h, 50 µM [1] [%] | viability at 2 h, 100 µM [1] [%] | viability at 24 h, 3.12 µM [1] [%] | viability at 24 h, 6.25 µM [1] [%] | viability at 24 h, 12.5 µM [1] [%] | viability at 24 h, 25 µM [1] [%] | viability at 24 h, 50 µM [1] [%] | viability at 24 h, 100 µM [1] [%] | MIC (P. aeruginosa PAO1) [µM] | MIC [2] [µM] | MIC (A. baumannii ATCC 19606) [µM] | MIC (S. agalactiae ATCC 27591) [µM] | MIC (P. aeruginosa ATCC 27853) [µM] | MIC (E. coli D21) [µM] | MIC (E. coli ATCC 25922) [µM] | other results |
| --- | --- | --- | --- | --- | --- | --- | --- | --- | --- | --- | --- | --- | --- | --- | --- | --- | --- | --- | --- | --- | --- |
| CC[C@H](C)[C@H](NC(=O)[C@H](CCCNC(=N)N)NC(=O)[C@H]1CCC(=O)NCCCC[C@H](NC(=O)[C@H](Cc2ccccc2)NC(=O)[C@H](Cc2c[nH]c3ccccc23)NC(=O)[C@@H]2CCCN2C(=O)[C@@H](NC(=O)[C@H](Cc2ccccc2)NC(=O)CCNC(=N)N)C(C)C)C(=O)N[C@@H](CCCCN)C(=O)N[C@@H](Cc2ccccc2)C(=O)N[C@H](CC(C)C)C(=O)N1)C(=O)N[C@@H](CC(C)C)C(N)=O [Peptide 4, guanidino-βAla-FVPWF[KKFle]RIL] ({Propanoyl(3-guanidino)}-FVPWFKKF[dL][dE]RIL-NH2; lactam 6-10) | 12 | 19.4 | 100 | 100 | 47 | 7 | 8 | 98 ± 1 | 93 ± 2 | 88 ± 4 | 21 ± 3 | 0 | 0 | 25 (≈ 45.4 µg/mL) | 1.56 (≈ 2.83 µg/mL) | 3.12 (≈ 5.67 µg/mL) | 1.56 (≈ 2.83 µg/mL) | 25 (≈ 45.4 µg/mL) | 6.25 (≈ 11.4 µg/mL) | 3.12 (≈ 5.67 µg/mL) | viability at 2 h, 3.12 µM [1]: 100%; MIC (S. aureus ATCC 25923): 3.12 µM (≈ 5.67 µg/mL); MIC (E. faecalis ATCC 29212): 6.25 µM (≈ 11.4 µg/mL); MIC (B. megaterium BM11): 0.78 µM (≈ 1.42 µg/mL) |
| CC[C@H](C)[C@H](NC(=O)[C@H](CCCNC(=N)N)NC(=O)[C@@H]1CCCCNC(=N)NCCCC[C@H](NC(=O)[C@H](Cc2ccccc2)NC(=O)[C@H](Cc2c[nH]c3ccccc23)NC(=O)[C@@H]2CCCN2C(=O)[C@@H](NC(=O)[C@@H](N)Cc2ccccc2)C(C)C)C(=O)N[C@@H](CCCCN)C(=O)N[C@@H](Cc2ccccc2)C(=O)N[C@H](CC(C)C)C(=O)N1)C(=O)N[C@@H](CC(C)C)C(N)=O [Peptide 11, FVPWF{KKFlK}RIL] | 76 | 21.3 | 98 | 86 | 57 | 35 | 10 | 98 ± 4 | 97 ± 3 | 87 ± 3 | 35 ± 3 | 5 ± 3 | 2 ± 1 | 50 (≈ 87.3 µg/mL) | 1.56 (≈ 2.72 µg/mL) | 1.56 (≈ 2.72 µg/mL) | 3.12 (≈ 5.45 µg/mL) | 50 (≈ 87.3 µg/mL) | 12.5 (≈ 21.8 µg/mL) | 6.25 (≈ 10.9 µg/mL) | cytotoxicity (in words) [3]: Low cytotoxicity (up to 25 μM); MIC (S. aureus ATCC 25923): 3.12 µM (≈ 5.45 µg/mL); MIC (E. faecalis ATCC 29212): 12.5 µM (≈ 21.8 µg/mL); MIC (B. megaterium BM11): 1.56 µM (≈ 2.72 µg/mL) |
| CC[C@H](C)[C@H](NC(=O)[C@H](CCCNC(=N)N)NC(=O)[C@H]1CCC(=O)NCCCC[C@H](NC(=O)[C@H](Cc2ccccc2)NC(=O)[C@H](Cc2c[nH]c3ccccc23)NC(=O)[C@@H]2CCCN2C(=O)[C@@H](NC(=O)[C@H](Cc2ccccc2)NC(=N)N)C(C)C)C(=O)N[C@@H](CCCCN)C(=O)N[C@@H](Cc2ccccc2)C(=O)N[C@H](CC(C)C)C(=O)N1)C(=O)N[C@@H](CC(C)C)C(N)=O [Peptide 3, guanidino-FVPWF[KKFle]RIL] (X1-VPWFKKF[dL][dE]RIL-NH2; lactam 5-9) | 1 | 38.6 | 137 | 125 | 104 | 52 | 5 | 93 ± 9 | 105 ± 2 | 107 ± 8 | 86 ± 5 | 29 ± 2 | 4 ± 1 | 50 (≈ 87.3 µg/mL) | 3.12 (≈ 5.45 µg/mL) | 3.12 (≈ 5.45 µg/mL) | 3.12 (≈ 5.45 µg/mL) | 100 (≈ 175 µg/mL) | 6.25 (≈ 10.9 µg/mL) | 6.25 (≈ 10.9 µg/mL) | viability at 2 h, 3.12 µM [1]: 126%; MIC (S. aureus ATCC 25923): 6.25 µM (≈ 10.9 µg/mL); MIC (E. faecalis ATCC 29212): 25 µM (≈ 43.7 µg/mL); MIC (B. megaterium BM11): 0.78 µM (≈ 1.36 µg/mL) |
